The source of these data is publication PMC7357169, “Blinded, Multicenter Evaluation of Drug-induced Changes in Contractility Using Human-induced Pluripotent Stem Cell-derived Cardiomyocytes” (Toxicological Sciences, 2020).

pEC50, pIC50: −log10 of the molar value.

In one data set the test system is cardiac contractility. As to conditions: isolated cardiomyocytes/heart muscles, Refs of Supplementary Table 1, cited from earlier work; for pEC50: read-out: Expected effect on contractility in isolated cardiomyocytes/heart muscles, EC50.
A further data set concerns PDE3. Set-up: method as in Refs column of Supplementary Table 1. The following applies: Refs of Supplementary Table 1; read-out: PDE3 inhibitor IC50; cited from earlier work.
The subject of another data set is hiPSC-CM EHTs. Nature of the data set: EHT contractility with beat rate slowed by 300 nM ivabradine and electrical pacing 0.5-2.0 Hz. It counts as cell-based, human. As to conditions: EHTs with 300 nM ivabradine, paced; only at 0.5 and 0.7 Hz, sometimes at 1 Hz, never at 1.5 or 2 Hz; high concentration bolus. As to the method:
We extended these studies to the 3D EHT platform, this time slowing spontaneous beating to < 0.5 Hz with 300 nM ivabradine, a pharmacological blocker of the “funny” If current ([Bois et al., 1996]). […] Whereas force-frequency relationships was negative above 1.5 Hz, it was positive between 0.5 and 1.5 Hz, evidenced by a 147% increase in force generation concurrent with significant shortening of CT and RT (Supplementary Figure 6). We therefore re-evaluated 6 of the PIs in the presence of 300 nM ivabradine with electrical pacing at 0.5, 0.7, 1.0, 1.5, and 2.0 Hz. These also included epinephrine, levosimendan, and pimobendan, which had been incorrectly predicted by EHT:R-PAT and/or EHT:ERC platform-cell combinations. […] Thus, in both 2D and 3D configurations, lower beating frequencies led to increased predictivity for PIs.
Figure 5. Slowed beat rate increases the predictivity of positive inotropes (PIs) in 3D engineered heart tissues (EHTs). Contraction analysis was carried out using EHTs with 6 of the PIs from the drug test set: epinephrine (Epi), forskolin (For), levosimendan (Lev), pimobendan (Pim), dobutamine (Dob), and milrinone (Mil) which had been predicted with variable accuracy (Figure 4A, web tool). […] Scatter plots show percentage changes relative to baseline at respective frequency. Averaged peaks for force are shown for baseline (BL, black peaks) versus after treatment in EHTs paced at 0.5 Hz (blue peaks) or 2.0 Hz (red peaks). Dunnett’s stats versus baseline at respective frequency: *p < .05; **p < .01; ***p < .001; ****p < .0001.
Supplementary Figure 6. Positive force frequency relationship in EHTs paced between 0.5 and 1.5 Hz. Spontaneous beat rate of EHTs was reduced by 3 hour pre-treatment with 300 nM ivabradine, an If current inhibitor. […] CA increased from 0.5 to 1.5 Hz but plateaued and declined at higher frequencies. These changes were reflected in the CT and RT data. Dunnett's stats vs vehicle control: *, P<0.05; **, P<0.01; ***, P<0.001; ****, P<0.0001.

The conditions of data set [1]: cited from earlier work; for FTPC: free therapeutic plasma concentration, Refs of Supplementary Table 1; for FPTC (free plasma therapeutic concentration): ref Supplementary Table 1.
The test system of a further data set is heart. On the set-up: method as in Refs column of Supplementary Table 1. The following applies: Refs of Supplementary Table 1; cited from earlier work.
The subject of the next data set is hiPSC-CMs. Set-up: method as in Zhao et al., 2019. The following applies: hiPSC-CMs under loaded conditions; ref Zhao et al., 2019; cited from earlier work.

Regarding `C[C@@H]1CC(=O)NN=C1c1ccc(NN=C(C#N)C#N)cc1` [Levosimendan], in the data set with cardiac contractility, the “Expected effect on contractility in isolated cardiomyocytes/heart muscles” value is “Small PI (~50%), PC#, PCl+PL (14%)”; the “PCl+PL” value is 14%; the “Small PI” value was about 50%; the pEC50 was about 7.00. Besides, the negative logarithm of the IC50 (pIC50) in the data set with PDE3 was 7.60. Further, the CA response result with hiPSC-CM EHTs was “increased contraction amplitude”. Moreover, in data set [1], the FTPC is 0.026 to 0.35 µM and the “FPTC (free plasma therapeutic concentration)” value is 0.026 to 0.35 µM. For the same compound, in the data set on heart, the “Expected cardiac effects in vivo” value was “PI, PC (more heart rate increase and RR decrease than dobutamine)”.
`Cc1[nH]c(=O)c(C#N)cc1-c1ccncc1` [Milrinone]: the “inotropy in Biowire II constructs” value in the data set on hiPSC-CMs was “positive inotropy”. For the same compound, in the data set with cardiac contractility, the “Expected effect on contractility in isolated cardiomyocytes/heart muscles” value was “Small PI, PC#, PCl, PL (smaller than ISO)” and the pEC50 was 4.22. Besides, the CA response entry with hiPSC-CM EHTs is given as “increased contraction amplitude”. For the same compound, in data set [1], the FTPC was 0.1 to 0.15 µM and the “FPTC (free plasma therapeutic concentration)” value was 0.1 to 0.15 µM. Besides, in the data set on heart, the “Expected cardiac effects in vivo” value was “PI, PC (more heart rate increase and RR decrease than dobutamine)”.
